Results: the supplement of paper PMC10307832

Experiments:
Assay in all cases: relative viability (nuclei count vs DMSO), 5 days (fraction); higher = more cells survive
NCI-H1975 = tested on: NCI-H1975
Outline: (§1)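 Lung cancer cell lines, seeded in 1536-well plates, were treated the following day by pin tool with a single drug or with five library-drug doses (not always all listed) in √10 steps on top of a fixed anchor-drug dose. Cells were fixed and nuclei stained in one step after 5 days, and nuclei were counted. Relative viability is the nuclei count for treated wells divided by that for vehicle wells, reported as medians of duplicate plates.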

NCI-H358 = tested on: NCI-H358
Outline: as §1

NCI-H2342 = tested on: NCI-H2342
Outline: as §1

HCC-15 = tested on: HCC-15
Outline: as §1

NCI-H647 = tested on: NCI-H647
Outline: as §1

HOP-62 = tested on: HOP-62
Outline: as §1

NCI-H2126 = tested on: NCI-H2126
Outline: as §1

RERF-LC-KJ = tested on: RERF-LC-KJ
Outline: as §1

A-427 = tested on: A-427
Outline: as §1

NCI-H1915 = tested on: NCI-H1915
Outline: as §1

HCC-78 = tested on: HCC-78
Outline: as §1

NCI-H2347 = tested on: NCI-H2347
Outline: as §1

LC-2-ad = tested on: LC-2-ad
Outline: as §1

NCI-H1734 = tested on: NCI-H1734
Outline: as §1

NCI-H522 = tested on: NCI-H522
Outline: as §1

LXF-289 = tested on: LXF-289
Outline: as §1

NCI-H1792 = tested on: NCI-H1792
Outline: as §1

NCI-H1755 = tested on: NCI-H1755
Outline: as §1

PC-3 [JPC-3] = tested on: PC-3 [JPC-3]
Outline: as §1

O=c1cc(N2CCOCC2)oc2c(-c3cccc4c3sc3ccccc34)cccc12 + NC(=O)Nc1cc(-c2cccc(F)c2)sc1C(=O)N[C@H]1CCCNC1 [AZD7762] (partner 0.2 µM)
relative viability (NCI-H1975; first compound 0.01 µM): 0.676 | relative viability (NCI-H1975; first compound 0.03162 µM): 0.735 | relative viability (NCI-H1975; first compound 0.1 µM): 0.554 | relative viability (NCI-H1975; first compound 0.3162 µM): 0.808 | relative viability (NCI-H1975; first compound 1 µM): 0.553 | relative viability (NCI-H358; first compound 0.01 µM): 0.49 | relative viability (NCI-H358; first compound 0.03162 µM): 0.517 | relative viability (NCI-H358; first compound 0.1 µM): 0.354 | relative viability (NCI-H358; first compound 0.3162 µM): 0.445 | relative viability (NCI-H358; first compound 1 µM): 0.519 | relative viability (NCI-H2342; first compound 0.01 µM): 0.566 | relative viability (NCI-H2342; first compound 0.03162 µM): 0.483 | relative viability (NCI-H2342; first compound 0.1 µM): 0.366 | relative viability (NCI-H2342; first compound 0.3162 µM): 0.45 | relative viability (NCI-H2342; first compound 1 µM): 0.433 | relative viability (HCC-15; first compound 0.01 µM): 1.23 | relative viability (HCC-15; first compound 0.03162 µM): 1.46 | relative viability (HCC-15; first compound 0.1 µM): 1.3 | relative viability (HCC-15; first compound 0.3162 µM): 1.26 | relative viability (HCC-15; first compound 1 µM): 1.54 | relative viability (NCI-H647; first compound 0.01 µM): 0.371 | relative viability (NCI-H647; first compound 0.03162 µM): 0.486 | relative viability (NCI-H647; first compound 0.1 µM): 0.0676 | relative viability (NCI-H647; first compound 0.3162 µM): 0.515 | relative viability (NCI-H647; first compound 1 µM): 0.363 | relative viability (HOP-62; first compound 0.01 µM): 0.514 | relative viability (HOP-62; first compound 0.03162 µM): 0.574 | relative viability (HOP-62; first compound 0.1 µM): 0.188 | relative viability (HOP-62; first compound 0.3162 µM): 0.745 | relative viability (HOP-62; first compound 1 µM): 0.689 | relative viability (NCI-H2126; first compound 0.01 µM): 0.982 | relative viability (NCI-H2126; first compound 0.03162 µM): 0.97 | relative viability (NCI-H2126; first compound 0.1 µM): 1.12 | relative viability (NCI-H2126; first compound 0.3162 µM): 0.981 | relative viability (NCI-H2126; first compound 1 µM): 1.02 | relative viability (RERF-LC-KJ; first compound 0.01 µM): 0.595 | relative viability (RERF-LC-KJ; first compound 0.03162 µM): 0.951 | relative viability (RERF-LC-KJ; first compound 0.1 µM): 1.18 | relative viability (RERF-LC-KJ; first compound 0.3162 µM): 0.994 | relative viability (RERF-LC-KJ; first compound 1 µM): 1.03 | relative viability (A-427; first compound 0.01 µM): 0.731 | relative viability (A-427; first compound 0.03162 µM): 0.767 | relative viability (A-427; first compound 0.1 µM): 0.529 | relative viability (A-427; first compound 0.3162 µM): 0.795 | relative viability (A-427; first compound 1 µM): 0.735 | relative viability (NCI-H1915; first compound 0.01 µM): 0.763 | relative viability (NCI-H1915; first compound 0.03162 µM): 0.725 | relative viability (NCI-H1915; first compound 0.1 µM): 0.731 | relative viability (NCI-H1915; first compound 0.3162 µM): 0.658 | relative viability (NCI-H1915; first compound 1 µM): 0.675 | relative viability (HCC-78; first compound 0.01 µM): 0.629 | relative viability (HCC-78; first compound 0.03162 µM): 0.616 | relative viability (HCC-78; first compound 0.1 µM): 0.354 | relative viability (HCC-78; first compound 0.3162 µM): 0.615 | relative viability (HCC-78; first compound 1 µM): 0.5 | relative viability (NCI-H2347; first compound 0.01 µM): 0.843 | relative viability (NCI-H2347; first compound 0.03162 µM): 0.791 | relative viability (NCI-H2347; first compound 0.1 µM): 0.601 | relative viability (NCI-H2347; first compound 0.3162 µM): 0.714 | relative viability (NCI-H2347; first compound 1 µM): 0.601 | relative viability (LC-2-ad; first compound 0.01 µM): 0.815 | relative viability (LC-2-ad; first compound 0.03162 µM): 0.777 | relative viability (LC-2-ad; first compound 0.1 µM): 0.831 | relative viability (LC-2-ad; first compound 0.3162 µM): 0.817 | relative viability (LC-2-ad; first compound 1 µM): 0.785 | relative viability (NCI-H1734; first compound 0.01 µM): 0.604 | relative viability (NCI-H1734; first compound 0.03162 µM): 0.568 | relative viability (NCI-H1734; first compound 0.1 µM): 0.112 | relative viability (NCI-H1734; first compound 0.3162 µM): 0.596 | relative viability (NCI-H1734; first compound 1 µM): 0.494 | relative viability (NCI-H522; first compound 0.01 µM): 0.737 | relative viability (NCI-H522; first compound 0.03162 µM): 0.894 | relative viability (NCI-H522; first compound 0.1 µM): 0.504 | relative viability (NCI-H522; first compound 0.3162 µM): 0.967 | relative viability (NCI-H522; first compound 1 µM): 0.775 | relative viability (LXF-289; first compound 0.01 µM): 1.11 | relative viability (LXF-289; first compound 0.03162 µM): 1.08 | relative viability (LXF-289; first compound 0.1 µM): 0.75 | relative viability (LXF-289; first compound 0.3162 µM): 1.2 | relative viability (LXF-289; first compound 1 µM): 1.21 | relative viability (NCI-H1792; first compound 0.01 µM): 0.75 | relative viability (NCI-H1792; first compound 0.03162 µM): 0.682 | relative viability (NCI-H1792; first compound 0.3162 µM): 0.673 | relative viability (NCI-H1792; first compound 1 µM): 0.733 | relative viability (NCI-H1755; first compound 0.01 µM): 0.473 | relative viability (NCI-H1755; first compound 0.03162 µM): 0.417 | relative viability (NCI-H1755; first compound 0.1 µM): 0.427 | relative viability (NCI-H1755; first compound 0.3162 µM): 0.434 | relative viability (NCI-H1755; first compound 1 µM): 0.487 | relative viability (PC-3 [JPC-3]; first compound 0.01 µM): 0.65 | relative viability (PC-3 [JPC-3]; first compound 0.03162 µM): 0.855 | relative viability (PC-3 [JPC-3]; first compound 0.1 µM): 0.87 | relative viability (PC-3 [JPC-3]; first compound 0.3162 µM): 0.954 | relative viability (PC-3 [JPC-3]; first compound 1 µM): 0.834
